Measured values published in patent publication US9284307B2, “Macrocyclic serine protease inhibitors” (Idenix Pharmaceuticals LLC, priority 2009, dated 2016).

Assays:
HCV NS3-NS4A protease 4a = molecular target: T1, HCV NS3-NS4A protease 4a (Hepatitis C virus genotype 4a, UniProt O39929); experiment: HCV protease assay (HiLyte Fluor TR/QXL 610 FRET peptide), genotype 4a; format: biochemical; settings: 2-3 nM protease, 60 min at 30° C., read-out: IC50 Against HS3/4A 4a
T1 construct: using 2-3 nM HCV NS3-NS4A protease, which was produced according to the method of Taremi et al; made in house
Procedure: (§1) Measurement of the inhibitory effect of compounds on HCV protease activity was performed using the HiLyte Fluor™ TR/QXL™ 610 FRET peptide from AnaSpec, Inc. (San Jose, Calif.) under conditions developed in-house using 2-3 nM HCV NS3-NS4A protease, which was produced according to the method of Taremi et al. (Protein Science, 1998, 7, 2143-2149). The compounds were tested at a variety of concentrations in assay buffer containing a final DMSO concentration of 5%. Reactions were allowed to proceed for 60 min at 30° C. and fluorescence measurements were recorded with a PerkinElmer Victor^3 V 1420 Multilabel Counter. The IC50 values were determined from the percent inhibition versus concentration data using a sigmoidal non-linear regression analysis based on four parameters with XLfit 4.1 software.

HCV NS3-NS4A protease 2a = molecular target: T2, HCV NS3-NS4A protease 2a (Hepatitis C virus genotype 2a, UniProt Q99IB8); experiment: HCV protease assay (HiLyte Fluor TR/QXL 610 FRET peptide), genotype 2a; format: biochemical; settings: 2-3 nM protease, 60 min at 30° C., read-out: IC50 Against HS3/4A 2a
T2 construct: using 2-3 nM HCV NS3-NS4A protease, which was produced according to the method of Taremi et al; made in house
Procedure: as §1

[1] = test system: HCV luciferase-bearing wild-type replicon in cured GS4.1 cells; experiment: Luciferase replicon transient transfection assay, wild-type replicon; format: cell-based
Procedure: (§2) The luciferase replicon transient transfection assay measures the ability of a test compound to inhibit the replication of a transiently-transfected HCV luciferase-bearing wild-type or mutant replicon in cured human hepatoma cells (cured GS4.1). The mutant replicons bear a specific single-site mutation in NS3 that is known to confer resistance to protease inhibitors currently in development. The inhibition of HCV replication was measured by quantification of luciferase protein expression. This assay has been validated using a panel of replicons bearing known protease inhibitor resistance mutations and their respective reference compounds. Briefly, subconfluent cured GS4.1 cells in OptiBuffer (ThermoElectron Corp.) were electroporated with 40 μg of wild-type or mutant luciferase-bearing HCV replicon RNA. The cells were then seeded in 96-well opaque white plates at 2.4×10^4 cells/well in 150 μL/well and incubated for 4 hours at 37° C./5% CO2. […] The plates were agitated on a rotating platform at room temperature for 3 minutes and read in a Victor^3V microplate reader (Perkin-Elmer) using a 700 nm cut-off filter with a 1 second read time. EC50 values were calculated from dose response curves from the resulting best-fit equations determined by Microsoft Excel and XLfit 4.1 software.

HCV NS3-NS4A protease 1a = molecular target: T3, HCV NS3-NS4A protease 1a (Hepatitis C virus genotype 1a, UniProt P27958); experiment: HCV protease assay (HiLyte Fluor TR/QXL 610 FRET peptide), genotype 1a; format: biochemical; settings: 2-3 nM protease, 60 min at 30° C., read-out: IC50 Against HS3/4A 1a
T3 construct: using 2-3 nM HCV NS3-NS4A protease, which was produced according to the method of Taremi et al; made in house
Procedure: as §1

CYP1A2 = molecular target: T4, CYP1A2 (Homo sapiens, UniProt P05177); experiment: In vitro CYP450 inhibition screen, fluorogenic assay, CYP1A2; format: in vitro ADME; settings: probe substrate 3-Cyano-7-Ethoxycoumarin; average of two independent experiments
T4 construct: purchased BD Bioscience 459500
Procedure: CYP1A2 (BD Bioscience Cat #459500), CYP2B6 (BD Bioscience cat #459220), and CYP3A4 (BD Bioscience Cat #459100) inhibition fluorogenic assays were performed according to the manufacturer's protocol. Test articles were prepared as 10 mM stock solutions in DMSO.
(§3) Data represent the average of two independent experiments. A represents inhibition of 5 to 10%. B represents inhibition of >10% to 20%. C represents inhibition of >20% to 30%. D represents inhibition of >30% to 40%. I represents an IC50 of 5 to 9 μM.

in vitro = format: cell-based; settings: human
Procedure: For cytotoxicity evaluation, GS4.1 cells were treated with compounds as described above and cellular viability was monitored using the Cell Titer 96 AQueous One Solution Cell Proliferation Assay (Promega). CC50 values were determined from the % cytotoxicity versus concentration data with Tecan Magellan software as described above.

CYP2C9 = molecular target: T5, CYP2C9 (Homo sapiens, UniProt P11712); experiment: In vitro CYP450 inhibition screen, luminogenic assay, CYP2C9; format: in vitro ADME; settings: CYP2C9 enzyme (BD Bioscience), probe substrate Luciferin-H, average of two independent experiments, read-out: IC50 (μM) or % Inhibition at 20 μM, CYP450 2C9
T5 construct: purchased BD Bioscience
Procedure: CYP2C8, 2C9, 2C19 and 2D6 (BD Bioscience) inhibition luminogenic assay was performed as per the protocol provided by Promega (P450-Glo™ Assay Technical Bulletin #TB325, P450-Glo™ Screening Systems Technical Bulletin #TB340). Test articles were prepared as 10 mM stock solutions in DMSO.
as §3

[2] = test system: HCV luciferase-bearing mutant replicon, NS3 R155K, in cured GS4.1 cells; experiment: Luciferase replicon transient transfection assay, R155K mutant replicon; format: cell-based
Procedure: as §2

HCV NS3-NS4A protease 3a = molecular target: T6, HCV NS3-NS4A protease 3a (Hepatitis C virus genotype 3a, UniProt Q81258); experiment: HCV protease assay (HiLyte Fluor TR/QXL 610 FRET peptide), genotype 3a; format: biochemical; settings: 2-3 nM protease, 60 min at 30° C., read-out: IC50 Against HS3/4A 3a
T6 construct: using 2-3 nM HCV NS3-NS4A protease, which was produced according to the method of Taremi et al; made in house
Procedure: as §1

[3] = test system: HCV luciferase-bearing mutant replicon, NS3 D168V, in cured GS4.1 cells; experiment: Luciferase replicon transient transfection assay, D168V mutant replicon; format: cell-based
Procedure: as §2

SMILES: COc1ccc2c(O[C@H]3CC[C@H]4C(=O)N(C)CCCC/C=C\[C@@H]5C[C@@]5(C(=O)NS(=O)(=O)C5(C)CC5)NC(=O)[C@@H]4C3)cc(-c3nc(C(F)(F)F)cs3)nc2c1C [Compound 51]
- IC50 (HCV NS3-NS4A protease 4a): < 1 µM
- IC50 (HCV NS3-NS4A protease 2a): < 1 µM
- Fold Change, Wild Type replicon ([1]; EC50 fold change, wild-type replicon): 1
- EC50 ([1]; Hepatitis C virus, 96 h, read-out: EC50(nm), Wild Type replicon): 0.00035 to 0.0011 µM
- IC50 (HCV NS3-NS4A protease 1a): < 1 µM
- IC50 (μM) or % Inhibition at 20 μM, CYP450 1A2 (CYP1A2): No Inhibition
- CC50 (in vitro): 10 to 75 µM
- inhibition at 20 µM (CYP2C9): 20 to 30%
- Fold Change, R155K replicon ([2]; EC50 fold change, R155K replicon): 10-20
- EC50 ([2]; Hepatitis C virus, 96 h, read-out: EC50(nm), R155K replicon): 0.005 to 0.015 µM
- IC50 (HCV NS3-NS4A protease 3a): < 1 µM
- Fold Change, D168V replicon ([3]; EC50 fold change, D168V replicon): 1000-3000
- EC50 ([3]; Hepatitis C virus, 96 h, read-out: EC50(nm), D168V replicon): 2 to 2.75 µM

SMILES: C#Cc1csc(-c2cc(O[C@H]3CC[C@H]4C(=O)N(C)CCCC/C=C\[C@@H]5C[C@@]5(C(=O)NS(=O)(=O)C5(C)CC5)NC(=O)[C@@H]4C3)c3ccc(OC)c(C)c3n2)n1 [Compound 52, (1aR,3aR,5S,7aR,15aS,Z)-5-(2-(4-ethynylthiazol-2-yl)-7-methoxy-8-methylquinolin-4-yloxy)-9-methyl-N-(1-methylcyclopropylsulfonyl)-3,8-dioxo-1a,2,3,3a,4,5,6,7,7a,8,9,10,11,12,13,15a-hexadecahydro-1H-benzo[c]cyclopropa[g][1,6]diazacyclotetradecine-1a-carboxamide]
- IC50 (μM) or % Inhibition at 20 μM, CYP450 1A2 (CYP1A2): No Inhibition
- inhibition at 20 µM (CYP2C9): 20 to 30%
